Type in all cases: toxicity, cell-based
The subject of one series is Fibroblast. The series can be described thus: Incucyte cell viability with human fibroblast. The note with it: 10 µM, compound concentration 10 uM.
The next series has as its system HEK-293T. As to the kind of experiment: Incucyte cell viability with HEK293T. The following applies: human, 10 µM, compound concentration 10 uM.
The test system of another series is U2OS. The series can be described thus: Incucyte cell viability with U2OS. The note with it: human, 10 µM, compound concentration 10 uM.
Where [1] appears, read: 6 h, replicate number 1, timepoint 6 hours.
Where [2] appears, read: 6 h, replicate number 2, timepoint 6 hours.
Where [3] appears, read: 12 h, replicate number 1, timepoint 12 hours.
The mark [4] stands for this setting: 12 h, replicate number 2, timepoint 12 hours.
[5] abbreviates: 18 h, replicate number 1, timepoint 18 hours.
Setting [6] is: 18 h, replicate number 2, timepoint 18 hours.
The mark [7] stands for this setting: 24 h, replicate number 1, timepoint 24 hours.
Setting [8] is: 24 h, replicate number 2, timepoint 24 hours.
The mark [9] stands for this setting: 0 h, replicate number 1, timepoint 0 hours.
Setting [10] is: 0 h, replicate number 2, timepoint 0 hours.

Each structure is given as a SMILES string.
Note: unitless GR value; below 1 slowed growth and below 0 cell loss.

With `COC[C@@H](c1ccc(C(F)(F)F)cc1)N1CCN(C2(C)CCN(C(=O)c3c(C)ncnc3C)CC2)C[C@@H]1C.O=C(O)/C=C\C(=O)O` [VICRIVIROC MALEATE], the “Growth Rate” value is -0.4 with Fibroblast (setting [1]); 0.52 in the series with Fibroblast (setting [2]); 0.17 in the series on Fibroblast (setting [3]); 0.68 in the series with Fibroblast (setting [4]); 0.48 with Fibroblast (setting [5]); 0.79 in the series on Fibroblast (setting [6]). The “Growth Rate” value with Fibroblast (setting [7]) is reported as 0.67; in the series on Fibroblast (setting [8]) it was 0.83; in the series with HEK-293T (setting [9]) it was 0.38; in the series with HEK-293T (setting [10]), -1; with HEK-293T (setting [3]), 0.66; with HEK-293T (setting [5]) it was 0.49. The “Growth Rate” value in the series with HEK-293T (setting [7]) is reported as 0.39; with U2OS (setting [9]), -0.67; in the series with U2OS (setting [10]), -0.31; in the series with U2OS (setting [1]) it was 0.58; in the series on U2OS (setting [3]), 0.57; in the series on U2OS (setting [4]) it was 0.98. Further, the “Growth Rate” value with U2OS (setting [5]) was 0.7; with U2OS (setting [6]), 0.98; in the series on U2OS (setting [7]), 0.8; in the series with U2OS (setting [8]) it was 0.97.
Consider `O=C1NCc2ccc3c(-c4cccc(Cl)c4)c[nH]c3c21`, for which the “Growth Rate” value in the series on Fibroblast (setting [1]) was -0.99; with Fibroblast (setting [2]), -0.83; in the series with Fibroblast (setting [3]), -0.86; in the series with Fibroblast (setting [4]) it was -0.4; in the series on Fibroblast (setting [5]), -0.65; with Fibroblast (setting [6]), -0.18. Moreover, the “Growth Rate” value with Fibroblast (setting [7]) was -0.39; in the series on Fibroblast (setting [8]), 0.01; with HEK-293T (setting [1]) it was -0.52; in the series on HEK-293T (setting [2]), -0.56; in the series on HEK-293T (setting [3]), -0.31; in the series on HEK-293T (setting [4]) it was -0.09. Besides, the “Growth Rate” value in the series with HEK-293T (setting [5]) is on record as -0.21; in the series with HEK-293T (setting [6]) it was -0.1; with HEK-293T (setting [7]) it was -0.19; in the series with HEK-293T (setting [8]), -0.07; with U2OS (setting [9]), -0.28; in the series with U2OS (setting [10]) it was 0.01. The “Growth Rate” value in the series on U2OS (setting [1]) is given as 0.17; in the series with U2OS (setting [2]), -0.08; with U2OS (setting [3]) it was 0.07; in the series on U2OS (setting [4]), -0.24; with U2OS (setting [5]), 0.03; in the series with U2OS (setting [6]), -0.24. Besides, the figures for the “Growth Rate” value with U2OS (setting [7]) and in the series on U2OS (setting [8]) were -0.13 and -0.28, respectively.
With `O=C(O)Cc1ccccc1Nc1c(Cl)cccc1Cl` [DICLOFENAC], the “Growth Rate” value with Fibroblast (setting [9]) is on record as 0.78; in the series on Fibroblast (setting [10]), 0.28; in the series with Fibroblast (setting [1]), 0.86; with HEK-293T (setting [10]) it was 0.45; in the series with HEK-293T (setting [1]), 0.97; in the series on U2OS (setting [10]) it was -1. Further, the “Growth Rate” value in the series on U2OS (setting [2]) was determined as 0.98.
Turning to `Cn1cc(C(=O)OCC2CCN(CCNS(C)(=O)=O)CC2)c2ccccc21`, the “Growth Rate” value with Fibroblast (setting [9]) is 0.81; in the series with Fibroblast (setting [1]), -0.25; in the series with Fibroblast (setting [3]) it was 0.1; in the series with Fibroblast (setting [4]), 0.4; in the series with Fibroblast (setting [5]), 0.33; in the series on Fibroblast (setting [7]) it was 0.43. The “Growth Rate” value is 0.82 with Fibroblast (setting [8]); 0.81 with HEK-293T (setting [1]); 0.43 with HEK-293T (setting [3]); 0.29 in the series with HEK-293T (setting [5]); 0.35 in the series on HEK-293T (setting [7]); 0.96 in the series on HEK-293T (setting [8]). The results for the “Growth Rate” value with U2OS (setting [2]), in the series on U2OS (setting [4]) and in the series with U2OS (setting [6]) were 0.45, 0.95 and 0.89, respectively.
For the molecule `CN1CCN(c2cc(-c3ccccc3)nc(N)n2)CC1`, the “Growth Rate” value amounted to 0.2 in the series on Fibroblast (setting [9]); 0.38 in the series with Fibroblast (setting [10]); 0.86 with Fibroblast (setting [3]); 0.76 with Fibroblast (setting [5]); 0.83 in the series with Fibroblast (setting [7]); 0.96 in the series with HEK-293T (setting [2]). The “Growth Rate” value is 0.75 in the series on U2OS (setting [9]), 0.59 in the series on U2OS (setting [2]), 0.96 in the series with U2OS (setting [4]) and 0.97 in the series on U2OS (setting [5]).
As for `COC(=O)[C@H]1[C@H]2C[C@H]3c4[nH]c5ccccc5c4CCN3C[C@H]2CC[C@@H]1O.Cl` [RAUWOLSCINE HYDROCHLORIDE], the “Growth Rate” value is -0.08 in the series on Fibroblast (setting [10]); 0.83 with Fibroblast (setting [1]); 0.59 with Fibroblast (setting [3]); 0.51 in the series with HEK-293T (setting [9]); 0.67 with HEK-293T (setting [10]); 0.76 with HEK-293T (setting [1]). Also, the “Growth Rate” value is on record as 0.95 in the series with HEK-293T (setting [3]); -0.57 in the series on U2OS (setting [9]); 0.53 in the series with U2OS (setting [1]); 0.61 in the series with U2OS (setting [3]); 0.89 in the series on U2OS (setting [4]); 0.79 with U2OS (setting [5]). Besides, the “Growth Rate” value in the series with U2OS (setting [6]) is 0.88; in the series on U2OS (setting [8]), 0.98.
Turning to `COCCn1c(C)c(C)s/c1=N\C(=O)C1C(C)(C)C1(C)C`, the “Growth Rate” value with Fibroblast (setting [9]) came to 0.65; with Fibroblast (setting [10]) it was 0.2; with HEK-293T (setting [9]), 0.71; with HEK-293T (setting [2]), 0.77; with HEK-293T (setting [4]), 0.76; with U2OS (setting [9]), 0.47. Moreover, the “Growth Rate” value with U2OS (setting [10]) is given as -1; in the series with U2OS (setting [5]), 1; with U2OS (setting [6]), 0.93; with U2OS (setting [7]) it was 0.98; in the series on U2OS (setting [8]) it was 0.97.
In the case of `O=C(O)COc1cccc(-c2ocnc2-c2nc(-c3ccccc3)c(-c3ccccc3)o2)c1`, the “Growth Rate” value was found to be 0.04 in the series with Fibroblast (setting [9]); 0.64 in the series with Fibroblast (setting [10]); 0.49 in the series on Fibroblast (setting [1]); 0.07 with Fibroblast (setting [2]); 0.59 in the series with Fibroblast (setting [3]); 0.91 with Fibroblast (setting [4]). Moreover, the “Growth Rate” value in the series with Fibroblast (setting [5]) is reported as 0.64; in the series on Fibroblast (setting [7]), 0.59; in the series with HEK-293T (setting [9]) it was 0.53; in the series on HEK-293T (setting [10]), -0.17; with HEK-293T (setting [3]) it was 0.79; with HEK-293T (setting [5]), 0.67. The “Growth Rate” value with HEK-293T (setting [7]) is listed as 0.9; in the series with HEK-293T (setting [8]), 0.98; in the series with U2OS (setting [9]) it was -0.56; in the series with U2OS (setting [10]), 0.7; in the series on U2OS (setting [3]), 0.74; with U2OS (setting [5]) it was 0.88. The “Growth Rate” value in the series with U2OS (setting [7]) was 1.
Regarding `O=C(CCCc1ccccc1)Nc1nc2ccccc2c(=O)s1`, the “Growth Rate” value in the series on Fibroblast (setting [10]) is on record as 0.6; with Fibroblast (setting [1]), -0.7; in the series with Fibroblast (setting [2]) it was -0.65; in the series with Fibroblast (setting [3]) it was -0.62; with Fibroblast (setting [4]) it was -0.39; with Fibroblast (setting [5]), -0.7. The “Growth Rate” value in the series with Fibroblast (setting [6]) was -0.32; in the series on Fibroblast (setting [7]) it was -0.59; in the series with Fibroblast (setting [8]), -0.34; in the series on HEK-293T (setting [10]) it was 0.98; with HEK-293T (setting [1]) it was 0.03; with HEK-293T (setting [3]), 0.13. Besides, the “Growth Rate” value in the series with HEK-293T (setting [5]) is on record as 0.34; in the series on HEK-293T (setting [6]), 0.95; in the series with HEK-293T (setting [7]) it was 0.34; in the series with HEK-293T (setting [8]), 0.84; with U2OS (setting [9]), -0.37; in the series on U2OS (setting [2]), 0.67. Besides, the results for the “Growth Rate” value in the series on U2OS (setting [4]), in the series with U2OS (setting [6]) and in the series with U2OS (setting [8]) were 0.83, 0.76 and 0.84, respectively.
Consider `CC(C)C[C@@H](NC(=O)[C@H](Cc1ccccc1)NC(=O)CNC(=O)[C@@H](C)NC(=O)[C@@H](N)Cc1ccc(O)cc1)C(=O)O` [DADLE], for which the “Growth Rate” value in the series on Fibroblast (setting [9]) was 0.72; with Fibroblast (setting [10]), -0.04; with Fibroblast (setting [3]), 0.89; in the series on HEK-293T (setting [9]), 0.71; with HEK-293T (setting [10]), 0.5; with HEK-293T (setting [1]), 0.4. Also, the “Growth Rate” value in the series on HEK-293T (setting [3]) stood at 0.61; in the series on HEK-293T (setting [5]) it was 0.72; in the series with HEK-293T (setting [6]), 1; with HEK-293T (setting [7]), 0.8; in the series with HEK-293T (setting [8]), 0.91; in the series on U2OS (setting [10]), 0.25. For the same molecule, the “Growth Rate” value with U2OS (setting [2]) was found to be 0.82; in the series with U2OS (setting [4]) it was 0.93; in the series on U2OS (setting [6]), 0.98; with U2OS (setting [8]) it was 0.99.

Values taken from ChEMBL document CHEMBL5058564, “EUbOPEN Chemogenomics Library 2 (Incucyte)” (2022).
